pIC50: −log10 of the molar value. Active and inactive are the calls of the source. The calls are words filed in the database; no cut-off is given here.
Columns and labels:
[1] = tested on: A549; assay: Growth inhibition of human A549 cells incubated for 48 hrs by MTT reagent based ELISA reader analysis; format: functional, cell-based; details: A549, 48 h
[2] = tested on: HCT-116; assay: Inhibition of cell migration in human HCT-116 cells assessed as intercellular distance at 5 nM by inverted phase-contrast microscopic analysis (reference value: 2.5 +/- 0.7 millimeter); format: functional
[3] = tested on: HCT-116; assay: Inhibition of cell migration in human HCT-116 cells assessed as intercellular distance at 5 nM incubated for 24 hrs by inverted phase-contrast microscopic analysis (reference value: 1 +/- 0.2 millimeter); format: functional
[4] = tested on: PDX14244; assay: Antitumor activity against human PDX14244 cells xenografted in SCID mouse model assessed as reduction in tumor volume at 8 mg/kg,po administrated once per week for 3 weeks; format: functional, organism-based
[5] = tested on: HCT-116; assay: Induction of apoptosis in human HCT-116 cells assessed as upregulation of DDX5 mRNA expression at 500 nM incubated for 6 hrs by RNA analysis; format: functional, cell-based
[6] = tested on: HCT-116; assay: Induction of apoptosis in human HCT-116 cells assessed as modulation of TOP1 mRNA expression at 10 to 500 nM incubated for 6 to 48 hrs by RNA analysis; format: functional, cell-based; details: dose 10-500 nM, time 6-48 hrs
[7] = tested on: HCT-116; assay: Induction of apoptosis in human HCT-116 cells assessed as modulation of TOP2B mRNA expression at 10 to 500 nM incubated for 6 to 48 hrs by RNA analysis; format: functional, cell-based; details: dose 10-500 nM, time 6-48 hrs
[8] = tested on: HCT-116; assay: Induction of apoptosis in human HCT-116 cells assessed as modulation of DDX21 mRNA expression at 10 to 500 nM incubated for 6 to 48 hrs by RNA analysis; format: functional, cell-based; details: dose 10-500 nM, time 6-48 hrs
[9] = tested on: HCT-116; assay: Induction of apoptosis in human HCT-116 cells assessed as modulation of DDX54 mRNA expression at 10 to 500 nM incubated for 6 to 48 hrs by RNA analysis; format: functional, cell-based; details: dose 10-500 nM, time 6-48 hrs
[10] = tested on: HCT-116; assay: Induction of apoptosis in human HCT-116 cells assessed as upregulation of ATF3 mRNA expression at 10 to 500 nM incubated for 6 to 48 hrs by RNA analysis; format: functional, cell-based; details: dose 10-500 nM, time 6-48 hrs
[11] = tested on: HCT-116; assay: Induction of apoptosis in human HCT-116 cells assessed as upregulation of Bax mRNA expression at 10 to 500 nM incubated for 6 to 48 hrs by RNA analysis; format: functional, cell-based; details: dose 10-500 nM, time 6-48 hrs
[12] = tested on: HCT-116; assay: Induction of apoptosis in human HCT-116 cells assessed as upregulation of GADD45A mRNA expression at 10 to 500 nM incubated for 6 to 48 hrs by RNA analysis; format: functional, cell-based; details: dose 10-500 nM, time 6-48 hrs
[13] = tested on: HCT-116; assay: Induction of apoptosis in human HCT-116 cells assessed as upregulation of ADA mRNA expression at 10 to 500 nM incubated for 6 to 48 hrs by RNA analysis; format: functional, cell-based; details: dose 10-500 nM, time 6-48 hrs
[14] = tested on: HCT-116; assay: Induction of apoptosis in human HCT-116 cells assessed as upregulation of XPC mRNA expression at 10 to 500 nM incubated for 6 to 48 hrs by RNA analysis; format: functional, cell-based; details: dose 10-500 nM, time 6-48 hrs
[15] = tested on: HCT-116; assay: Activation of innate immune response in human HCT-116 cells assessed as upregulation of CASP1 gene expression at 10 to 500 nM incubated for 6 to 48 hrs by RNA analysis; format: functional, cell-based; details: dose 10-500 nM, time 6-48 hrs
[16] = tested on: HCT-116; assay: Activation of innate immune response in human HCT-116 cells assessed as upregulation of IL-12RB2 gene expression at 10 to 500 nM incubated for 6 to 48 hrs by RNA analysis; format: functional, cell-based; details: dose 10-500 nM, time 6-48 hrs
[17] = tested on: HCT-116; assay: Activation of innate immune response in human HCT-116 cells assessed as upregulation of IL-1A gene expression at 10 to 500 nM incubated for 6 to 48 hrs by RNA analysis; format: functional, cell-based; details: dose 10-500 nM, time 6-48 hrs
[18] = tested on: HCT-116; assay: Activation of innate immune response in human HCT-116 cells assessed as upregulation of IRF7 gene expression at 10 to 500 nM incubated for 6 to 48 hrs by RNA analysis; format: functional, cell-based; details: dose 10-500 nM, time 6-48 hrs
[19] = tested on: HCT-116; assay: Induction of apoptosis in human HCT-116 cells assessed as downregulation of ADPGK gene expression at 10 to 500 nM incubated for 6 to 48 hrs by RNA analysis; format: functional, cell-based; details: dose 10-500 nM, time 6-48 hrs
[20] = tested on: HCT-116; assay: Induction of apoptosis in human HCT-116 cells assessed as downregulation of RANBP2 gene expression at 10 to 500 nM incubated for 6 to 48 hrs by RNA analysis; format: functional, cell-based; details: dose 10-500 nM, time 6-48 hrs
[21] = tested on: HCT-116; assay: Induction of apoptosis in human HCT-116 cells assessed as downregulation of NUP160 gene expression at 10 to 500 nM incubated for 6 to 48 hrs by RNA analysis; format: functional, cell-based; details: dose 10-500 nM, time 6-48 hrs
[22] = tested on: HCT-116; assay: Induction of apoptosis in human HCT-116 cells assessed as downregulation of NUP205 gene expression at 10 to 500 nM incubated for 6 to 48 hrs by RNA analysis; format: functional, cell-based; details: dose 10-500 nM, time 6-48 hrs
[23] = tested on: HCT-116; assay: Induction of apoptosis in human HCT-116 cells assessed as downregulation of NUP58 gene expression at 10 to 500 nM incubated for 6 to 48 hrs by RNA analysis; format: functional, cell-based; details: dose 10-500 nM, time 6-48 hrs
[24] = tested on: HCT-116; assay: Induction of apoptosis in human HCT-116 cells assessed as downregulation of NUP85 gene expression at 10 to 500 nM incubated for 6 to 48 hrs by RNA analysis; format: functional, cell-based; details: dose 10-500 nM, time 6-48 hrs
[25] = tested on: HCT-116; assay: Induction of apoptosis in human HCT-116 cells assessed as downregulation of NUP93 gene expression at 10 to 500 nM incubated for 6 to 48 hrs by RNA analysis; format: functional, cell-based; details: dose 10-500 nM, time 6-48 hrs
[26] = tested on: HCT-116; assay: Induction of apoptosis in human HCT-116 cells assessed as downregulation of AK8 gene expression at 10 to 500 nM incubated for 6 to 48 hrs by RNA analysis; format: functional, cell-based; details: dose 10-500 nM, time 6-48 hrs
[27] = tested on: HCT-116; assay: Induction of apoptosis in human HCT-116 cells assessed as downregulation of NME4 gene expression at 10 to 500 nM incubated for 6 to 48 hrs by RNA analysis; format: functional, cell-based; details: dose 10-500 nM, time 6-48 hrs
[28] = tested on: HCT-116; assay: Induction of apoptosis in human HCT-116 cells assessed as downregulation of ATIC gene expression at 10 to 500 nM incubated for 6 to 48 hrs by RNA analysis; format: functional, cell-based; details: dose 10-500 nM, time 6-48 hrs
[29] = tested on: HCT-116; assay: Induction of apoptosis in human HCT-116 cells assessed as downregulation of CTPS2 gene expression at 10 to 500 nM incubated for 6 to 48 hrs by RNA analysis; format: functional, cell-based; details: dose 10-500 nM, time 6-48 hrs
[30] = tested on: HCT-116; assay: Induction of apoptosis in human HCT-116 cells assessed as downregulation of DPYD gene expression at 10 to 500 nM incubated for 6 to 48 hrs by RNA analysis; format: functional, cell-based; details: dose 10-500 nM, time 6-48 hrs
[31] = tested on: HCT-116; assay: Induction of apoptosis in human HCT-116 cells assessed as downregulation of GART gene expression at 10 to 500 nM incubated for 6 to 48 hrs by RNA analysis; format: functional, cell-based; details: dose 10-500 nM, time 6-48 hrs
[32] = tested on: HCT-116; assay: Induction of apoptosis in human HCT-116 cells assessed as downregulation of TYMS gene expression at 10 to 500 nM incubated for 6 to 48 hrs by RNA analysis; format: functional, cell-based; details: dose 10-500 nM, time 6-48 hrs
[33] = tested on: HCT-116; assay: Induction of apoptosis in human HCT-116 cells assessed as downregulation of UMPS gene expression at 10 to 500 nM incubated for 6 to 48 hrs by RNA analysis; format: functional, cell-based; details: dose 10-500 nM, time 6-48 hrs
[34] = tested on: HCT-116; assay: Induction of apoptosis in human HCT-116 cells assessed as downregulation of LIPE gene expression at 10 to 500 nM incubated for 6 to 48 hrs by RNA analysis; format: functional, cell-based; details: dose 10-500 nM, time 6-48 hrs

Row | Structure (SMILES) | pIC50 [1] | Activity [2] [mm] | Activity [3] [mm] | Activity [5] | Activity [6] | Activity [7] | Activity [8] | Activity [9] | Activity [10] | Activity [11] | Activity [12] | Activity [14] | Activity [16] | Activity [18] | Activity [20] | Activity [21] | Activity [22] | Activity [24] | Activity [25] | Activity [26] | further results
1 | CC[C@@]1(O)C(=O)OCc2c1cc1n(c2=O)Cc2c-1nc1cc3c(cc1c2-c1ccc(OC)cc1)OCO3 | 7.36 | 2.8 | 1.3 | Active | Active | Active | Active | Active | Active | Active | Active | Active | Active | Active | Active | Active | Active | Active | Active | Active | Activity [4]: Active; Activity [13]: Active; Activity [15]: Active; Activity [17]: Active; Activity [19]: Active; Activity [23]: Active; Activity [27]: Active; Activity [28]: Active; Activity [29]: Active; Activity [30]: Active; Activity [31]: Active; Activity [32]: Active; Activity [33]: Active; Activity [34]: Active
2 | CC[C@@]1(O)C(=O)OCc2c1cc1n(c2=O)Cc2cc3cc4c(cc3nc2-1)OCO4 | 7.29 | 2.6 | 1.3 | Active | Active | Active | Active | Active | Active | Active | Active | Active | Active | Active | Active | Active | Active | Active | Active | Active | Activity [13]: Active; Activity [15]: Active; Activity [17]: Active; Activity [19]: Active; Activity [23]: Active; Activity [27]: Active; Activity [28]: Active; Activity [29]: Active; Activity [30]: Active; Activity [31]: Active; Activity [32]: Active; Activity [33]: Active; Activity [34]: Active
3 | CC[C@@]1(O)C(=O)OCc2c1cc1n(c2=O)Cc2c-1nc1cc3c(cc1c2-c1cc(OC)cc(OC)c1)OCO3 | 7.55 | 2.7 | 1.5 | Active | Active | Active | Active | Active | Active | Active | Active | Active | Active | Active | Active | Active | Active | Active | Active | Active | Activity [4]: Active; Activity [27]: Active; Activity [28]: Active; Activity [29]: Active; Activity [31]: Active; Activity [32]: Active; Activity [33]: Active; Activity [34]: Active
4 | CCc1ccc(-c2c3c(nc4cc5c(cc24)OCO5)-c2cc4c(c(=O)n2C3)COC(=O)[C@]4(O)CC)cc1 | 7.24 | 2.6 | 1.3 | Active | Active | Active | Active | Active | Active | Active | Active | Active | Active | Active | Active | Active | Active | Active | Active | Active | Activity [4]: Active; Activity [13]: Active; Activity [15]: Active; Activity [17]: Active; Activity [19]: Active; Activity [23]: Active; Activity [27]: Active; Activity [28]: Active; Activity [29]: Active; Activity [30]: Active; Activity [31]: Active; Activity [32]: Active; Activity [33]: Active; Activity [34]: Active
